# Positions of bridges follow the written chain, without caps; N, C: chain ends. Non-standard residues stand in square brackets, D forms with d. Residues, ends and D or L forms follow the SMILES beside them. Tic = O=C(O)[C@@H]1Cc2ccccc2CN1
# What was measured:
# HIV-1 NL4-3 DTV = details: read-out: IC50 DTV, P4-CCR5 cells, peptide 2 h before infection, readout three days after infection
# Summary of the method: (§1)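 P4-CCR5 cells (CD4, CCR5, CXCR4, HIV-1 promoter-driven β-galactosidase) pretreated 2 h with peptide, then infected with virus containing 1 ng p24 antigen and incubated overnight. Cells washed and cultured without peptide; three days post-infection infectivity read by chemiluminescent β-galactosidase assay, in quintuplicate.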
# X4-tropic HIV-1 NL4-3 = details: read-out: IC50 NL4-3; P4-CCR5 cells, HIV-1 NL4-3, peptide 2 h before infection, readout three days after infection
# Summary of the method: as §1
Molecule,IC50 (HIV-1 NL4-3 DTV) [nM],IC50 (X4-tropic HIV-1 NL4-3) [nM]
CC[C@H](C)[C@H](NC(=O)[C@H](C)NC(=O)[C@H](CCC(=O)O)NC(=O)[C@@H](N)CC(C)C)C(=O)N1CCC[C@H]1C(=O)N[C@H]1CSSC[C@@H](C(=O)N[C@H](C(=O)NCC(=O)N[C@@H](Cc2ccccc2)C(=O)NCC(=O)N[C@@H](CCCCN)C(=O)N2CCC[C@H]2C(=O)N[C@@H](Cc2ccccc2)C(=O)N[C@H](C(=O)N[C@@H](Cc2ccccc2)C(=O)O)C(C)C)C(C)C)NC(=O)[C@@H]2CCCN2C(=O)[C@@H]2CCCN2C(=O)[C@H]([C@@H](C)CC)NC(=O)[C@H](CO)NC1=O [VIR-162] (H-LEAIPCSIPPCVGFGKPFVF-OH; disulfide 6-11),950,660
CC[C@H](C)[C@H](NC(=O)[C@H](C)NC(=O)[C@H](CCC(=O)O)NC(=O)[C@@H](N)CC(C)C)C(=O)N1CCC[C@H]1C(=O)N[C@H]1CSSC[C@@H](C(=O)N[C@H](C(=O)N[C@@H](CC(C)C)C(=O)N[C@@H](Cc2ccccc2)C(=O)N[C@@H](CC(N)=O)C(=O)N[C@@H](CCCCN)C(=O)N2CCC[C@H]2C(=O)N[C@@H](Cc2ccccc2)C(=O)N[C@H](C(=O)N[C@@H](Cc2ccccc2)C(=O)O)C(C)C)C(C)C)NC(=O)[C@@H]2CCCN2C(=O)[C@@H]2CCCN2C(=O)[C@H]([C@@H](C)CC)NC(=O)[C@H](CO)NC1=O [VIR-163] (H-LEAIPCSIPPCVLFNKPFVF-OH; disulfide 6-11),290,760
"CC[C@H](C)[C@H](NC(=O)[C@H](C)NC(=O)[C@H](CCC(=O)O)NC(=O)[C@@H](N)CC(C)C)C(=O)N1CCC[C@H]1C(=O)N[C@@H](CCSC)C(=O)N[C@@H](CO)C(=O)N[C@H](C(=O)N1CCC[C@H]1C(=O)N1CCC[C@@H]1C(=O)N[C@@H](CCC(=O)O)C(=O)N[C@H](C(=O)NCC(=O)N[C@@H](Cc1ccccc1)C(=O)NCC(=O)N[C@@H](CCCCN)C(=O)N1CCC[C@H]1C(=O)N[C@@H](Cc1ccccc1)C(=O)N[C@H](C(=O)N[C@@H](Cc1ccccc1)C(=O)O)C(C)C)C(C)C)[C@@H](C)CC [VIR-190, LEAIPMSIPpEVGFGKPFVF] (H-LEAIPMSIP[dP]EVGFGKPFVF-OH)",3110,1840
"CC[C@H](C)[C@H](NC(=O)[C@H](C)NC(=O)[C@H](CCC(=O)O)NC(=O)[C@@H](N)CC(C)C)C(=O)N1CCC[C@H]1C(=O)N[C@@H](CCSC)C(=O)N[C@@H](CO)C(=O)N[C@H](C(=O)N1CCC[C@H]1C(=O)N1CCC[C@@H]1C(=O)N[C@@H](CCC(=O)O)C(=O)N[C@H](C(=O)N[C@@H](CC(C)C)C(=O)N[C@@H](Cc1ccccc1)C(=O)NCC(=O)N[C@@H](CCCCN)C(=O)N1CCC[C@H]1C(=O)N[C@@H](Cc1ccccc1)C(=O)N[C@H](C(=O)N[C@@H](Cc1ccccc1)C(=O)O)C(C)C)C(C)C)[C@@H](C)CC [VIR-191, LEAIPMSIPpEVLFGKPFVF] (H-LEAIPMSIP[dP]EVLFGKPFVF-OH)",560,1790
"CC[C@H](C)[C@H](NC(=O)[C@H](C)NC(=O)[C@H](CCC(=O)O)NC(=O)[C@@H](N)CC(C)C)C(=O)N1CCC[C@H]1C(=O)N[C@@H](CCSC)C(=O)N[C@@H](CO)C(=O)N[C@H](C(=O)N1CCC[C@H]1C(=O)N1CCC[C@@H]1C(=O)N[C@@H](CCC(=O)O)C(=O)N[C@H](C(=O)N[C@@H](Cc1ccccc1)C(=O)N[C@@H](Cc1ccccc1)C(=O)NCC(=O)N[C@@H](CCCCN)C(=O)N1CCC[C@H]1C(=O)N[C@@H](Cc1ccccc1)C(=O)N[C@H](C(=O)N[C@@H](Cc1ccccc1)C(=O)O)C(C)C)C(C)C)[C@@H](C)CC [VIR-192, LEAIPMSIPpEVFFGKPFVF] (H-LEAIPMSIP[dP]EVFFGKPFVF-OH)",1210,1540
"CC[C@H](C)[C@H](NC(=O)[C@H](C)NC(=O)[C@H](CCC(=O)O)NC(=O)[C@@H](N)CC(C)C)C(=O)N1CCC[C@H]1C(=O)N[C@@H](CCSC)C(=O)N[C@@H](CO)C(=O)N[C@H](C(=O)N1CCC[C@H]1C(=O)N1CCC[C@@H]1C(=O)N[C@@H](CCC(=O)O)C(=O)N[C@@H](Cc1ccccc1)C(=O)N[C@@H](C)C(=O)N[C@@H](Cc1ccccc1)C(=O)N[C@@H](CC(N)=O)C(=O)N[C@@H](CCCCN)C(=O)N1CCC[C@H]1C(=O)N[C@@H](Cc1ccccc1)C(=O)N[C@H](C(=O)N[C@@H](Cc1ccccc1)C(=O)O)C(C)C)[C@@H](C)CC [VIR-193, LEAIPMSIPpEFAFNKPFVF] (H-LEAIPMSIP[dP]EFAFNKPFVF-OH)",1380,1740
"CC[C@H](C)[C@H](NC(=O)[C@@H]1CCCN1C(=O)[C@@H](NC(=O)[C@H](C)NC(=O)[C@H](CCC(=O)O)NC(=O)[C@@H](N)CC(C)C)[C@@H](C)CC)C(=O)N[C@@H](CO)C(=O)N[C@H](C(=O)N1CCC[C@H]1C(=O)N1CCC[C@@H]1C(=O)N[C@@H](CCC(=O)O)C(=O)N[C@H](C(=O)N[C@@H](C)C(=O)N[C@@H](Cc1ccccc1)C(=O)N[C@@H](CC(N)=O)C(=O)N[C@@H](CCCCN)C(=O)N1Cc2ccccc2C[C@H]1C(=O)N[C@@H](Cc1ccccc1)C(=O)N[C@H](C(=O)N[C@@H](Cc1ccccc1)C(=O)O)C(C)C)C(C)C)[C@@H](C)CC [VIR-447, LEAIPISIPpEVAFNK(L-Tic)FVF] (H-LEAIPISIP[dP]EVAFNK[Tic]FVF-OH)",–,620
"CC[C@H](C)[C@H](NC(=O)[C@H](CC(=O)O)NC(=O)[C@H](CCC(=O)O)NC(=O)[C@@H](N)CC(C)C)C(=O)N1CCC[C@H]1C(=O)N[C@@H](CCSC)C(=O)N[C@@H](CO)C(=O)N[C@H](C(=O)N1CCC[C@H]1C(=O)N1CCC[C@@H]1C(=O)N[C@@H](CCC(=O)O)C(=O)N[C@H](C(=O)N1Cc2ccccc2C[C@H]1C(=O)N[C@@H](Cc1ccccc1)C(=O)N[C@@H](CC(N)=O)C(=O)N[C@@H](CCCCN)C(=O)N1CCC[C@H]1C(=O)N[C@@H](Cc1ccccc1)C(=O)N[C@H](C(=O)N[C@@H](Cc1ccccc1)C(=O)O)C(C)C)C(C)C)[C@@H](C)CC [VIR-452, LEDIPMSIPpEV(L-Tic)FNKPFVF] (H-LEDIPMSIP[dP]EV[Tic]FNKPFVF-OH)",–,184
"CC[C@H](C)[C@H](NC(=O)[C@@H]1CCCN1C(=O)[C@@H](NC(=O)[C@H](CC(=O)O)NC(=O)[C@H](CCC(=O)O)NC(=O)[C@@H](N)CC(C)C)[C@@H](C)CC)C(=O)NCC(=O)N[C@H](C(=O)N1CCC[C@H]1C(=O)N1CCC[C@@H]1C(=O)N[C@@H](CCC(=O)O)C(=O)N[C@@H](Cc1ccccc1)C(=O)N[C@@H](CC(C)C)C(=O)N[C@@H](Cc1ccccc1)C(=O)N[C@@H](CC(N)=O)C(=O)N[C@@H](CCCCN)C(=O)N1CCC[C@H]1C(=O)N[C@@H](Cc1ccccc1)C(=O)N[C@H](C(=O)N[C@@H](Cc1ccccc1)C(=O)O)C(C)C)[C@@H](C)CC [VIR-479, LEDIPIGIPpEFLFNKPFVF] (H-LEDIPIGIP[dP]EFLFNKPFVF-OH)",–,479
"CC[C@H](C)[C@H](NC(=O)[C@@H]1CCCN1C(=O)[C@@H](NC(=O)[C@H](CCCCN)NC(=O)[C@H](CCC(=O)O)NC(=O)[C@@H](N)CC(C)C)[C@@H](C)CC)C(=O)NCC(=O)N[C@H](C(=O)N1CCC[C@H]1C(=O)N1CCC[C@@H]1C(=O)N[C@@H](CCC(=O)O)C(=O)N[C@H](C(=O)N[C@@H](C)C(=O)N[C@@H](Cc1ccccc1)C(=O)N[C@@H](CC(N)=O)C(=O)N[C@@H](CCCCN)C(=O)N1Cc2ccccc2C[C@H]1C(=O)N[C@@H](Cc1ccccc1)C(=O)N[C@H](C(=O)N[C@@H](Cc1ccccc1)C(=O)O)C(C)C)C(C)C)[C@@H](C)CC [VIR-485, LEKIPIGIPpEVAFNK(L-Tic)FVF] (H-LEKIPIGIP[dP]EVAFNK[Tic]FVF-OH)",–,760
"CC[C@H](C)[C@H](NC(=O)[C@@H]1CCCN1C(=O)[C@@H](NC(=O)[C@H](CC(=O)O)NC(=O)[C@H](CCC(=O)O)NC(=O)[C@@H](N)CC(C)C)[C@@H](C)CC)C(=O)NCC(=O)N[C@H](C(=O)N1CCC[C@H]1C(=O)N1CCC[C@@H]1C(=O)N[C@@H](CCC(=O)O)C(=O)N[C@H](C(=O)N1Cc2ccccc2C[C@H]1C(=O)N[C@@H](Cc1ccccc1)C(=O)N[C@@H](CC(N)=O)C(=O)N[C@@H](CCCCN)C(=O)N1CCC[C@H]1C(=O)N[C@@H](Cc1ccccc1)C(=O)N[C@H](C(=O)N[C@@H](Cc1ccccc1)C(=O)O)C(C)C)C(C)C)[C@@H](C)CC [VIR-487, LEDIPIGIPpEV(L-Tic)FNKPFVF] (H-LEDIPIGIP[dP]EV[Tic]FNKPFVF-OH)",–,256
"CC[C@H](C)[C@H](NC(=O)[C@@H]1CCCN1C(=O)[C@@H](NC(=O)[C@H](CC(=O)O)NC(=O)[C@H](CCC(=O)O)NC(=O)[C@@H](N)CC(C)C)[C@@H](C)CC)C(=O)NCC(=O)N[C@H](C(=O)N1CCC[C@H]1C(=O)N1CCC[C@@H]1C(=O)N[C@@H](CCC(=O)O)C(=O)N[C@H](C(=O)N[C@@H](C)C(=O)N[C@@H](Cc1ccccc1)C(=O)N[C@@H](CC(N)=O)C(=O)N[C@@H](CCCCN)C(=O)N1Cc2ccccc2C[C@H]1C(=O)N[C@@H](Cc1ccccc1)C(=O)N[C@H](C(=O)N[C@@H](Cc1ccccc1)C(=O)O)C(C)C)C(C)C)[C@@H](C)CC [VIR-488, LEDIPIGIPpEVAFNK(L-Tic)FVF] (H-LEDIPIGIP[dP]EVAFNK[Tic]FVF-OH)",–,415
CC[C@H](C)[C@H](NC(=O)[C@H](C)NC(=O)[C@H](CCC(=O)O)NC(=O)[C@@H](N)CC(C)C)C(=O)N1CCC[C@H]1C(=O)N[C@H]1CSSC[C@@H](C(=O)N[C@@H](CC(C)C)C(=O)N[C@@H](Cc2ccccc2)C(=O)NCC(=O)N[C@@H](CCCCN)C(=O)N2CCC[C@H]2C(=O)N[C@@H](Cc2ccccc2)C(=O)N[C@H](C(=O)N[C@@H](Cc2ccccc2)C(=O)O)C(C)C)NC(=O)[C@H](CCC(=O)O)NC(=O)[C@@H]2CCCN2C(=O)[C@@H]2CCCN2C(=O)[C@H]([C@@H](C)CC)NC(=O)[C@H](CO)NC1=O [VIR-570] (H-LEAIPCSIPPECLFGKPFVF-OH; disulfide 6-12),–,231
H-LEAIPISIPPELAFAKPFVF-OH [VIR-286],–,559
H-LEAIPISIPPEVFFGKPFVF-OH [VIR-284],–,281
LEAIPMKIPPEFLFGKPFVF [VIR-590],–,343

# Reference: patent publication US7655629B2, “Peptides and their use for the treatment of HIV infections” (priority 2002, dated 2010)
